For 26 compounds, IC50 results are on record in patent US12116358B2, “Substituted indoles and methods of use thereof” (EPIZYME, INC., priority 2018, dated 2024).

Each structure is given as a SMILES string.

One test relates to H3K36me3 in A549 cells. The test can be described thus: In-Cell Western (ICW) assay of SETD2 inhibitors (A549 assay). Format: cell-based, human. The following applies: A549 cells; read-out: SETD2 A549. Put shortly:
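H3K36me3 In-Cell Western: cells exposed to compound for 3 days at 4,000 cells/well, 37° C. DRAQ5 (1:1000) marked cell number, with 700/800-channel Licor read-out.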
`Cc1ccc(F)c2cc(C(=O)Nc3cccc(N4CC[C@H](N(C)C)C4)c3)[nH]c12` [compound 102]: the IC50 is 200 nM.

With `Cc1cc(-c2cccnc2)cnc1C(NC(=O)c1cc2cccc(C)c2[nH]1)C1CC1` (stereo not shown) [compound 406], the IC50 was determined as 2800 nM.

Turning to `C=Cc1ccc(C)c2[nH]c(C(=O)NC(CCC(=O)N3CCOCC3)c3ncccc3C)cc12` (stereo not shown) [compound 431], the IC50 came to 4400 nM.

Turning to `Cc1cccc2cc(C(=O)NCCc3ccccc3N3CCC(CCN(C)C)CC3)[nH]c12` [compound 549], the IC50 is above 25000 nM.

With `Cc1ccc(F)c2cc(C(=O)Nc3cccc(N4CCN(C)CC4c4ccccc4)c3)[nH]c12` (stereo not shown) [compound 539], the IC50 was above 25000 nM.

Take `Cc1ccc(F)c2cc(C(=O)NC3CCCC(c4cncnc4)C3)[nH]c12` (stereo not shown) [compound 379]: the IC50 was above 2000 nM.

As for `CCc1cc(NC(=O)c2cc3c(F)ccc(C)c3[nH]2)cc(N2CCC(N(C)C)CC2)c1` [compound 398], the IC50 amounted to 2400 nM.

Take `Cc1ccc(F)c2cc(C(=O)NC3CCCC(N4CCN5C(=O)CN(C)C(=O)C5C4)C3)[nH]c12` (stereo not shown) [compound 1103]: the IC50 came to 100 nM.

As for `Cc1ccc(F)c2cc(C(=O)NC3CCCC(N4CCn5c(cn(C)c5=O)C4)C3)[nH]c12` (stereo not shown) [compound 1179], the IC50 turned out to be 800 nM.

With `CCNC(=O)N1CCN(C2CCCC(NC(=O)c3cc4c(F)ccc(C)c4[nH]3)C2)CC1` (stereo not shown) [compound 949], the IC50 is above 2000 nM.

`Cc1ccc(F)c2cc(C(=O)NC3CCCC(N4CCN(C(=O)OC(C)C)CC4)C3)[nH]c12` (stereo not shown) [compound 998]: the IC50 was above 2000 nM.

Take `Cc1ccc(F)c2cc(C(=O)Nc3cc(F)cc(N4CCN(C(=O)CN(C)C)CC4)c3)[nH]c12` [compound 62]: the IC50 came to 100 nM.

`Cc1ccc(F)c2cc(C(=O)Nc3cccc(N4CCNC(=O)CC4)c3)[nH]c12` [compound 200]: the IC50 amounted to 400 nM.

In the case of `CC(=O)N1C(C)CN(C2CCCC(NC(=O)c3cc4c(F)ccc(C)c4[nH]3)C2)CC1C` (stereo not shown) [compound 1162], the IC50 was found to be 200 nM.

Regarding `CNC(=O)CN1CCCC(NC(=O)c2cc3c(F)ccc(C)c3[nH]2)C1` (stereo not shown) [compound 384], the IC50 was above 2000 nM.

For the compound `CCNC(=O)N1CCN(C2CCCC(NC(=O)c3cc4c(F)ccc(C)c4[nH]3)C2)CC1` (stereo not shown) [compound 948], the IC50 came to 100 nM.

For the compound `Cc1ccc(F)c2cc(C(=O)NC3CCCC(N4CCC(N(C)C(=O)C5COC5)C4)C3)[nH]c12` (stereo not shown) [compound 946], the IC50 turned out to be 100 nM.

Take `Cc1cccc2cc(C(=O)Nc3cnc4nccn4c3)[nH]c12` [compound 484]: the IC50 was 10600 nM.

As to `Cc1cc(-c2ccc(N)nc2)cnc1C(NC(=O)c1cc2cccc(C)c2[nH]1)C1CC1` (stereo not shown) [compound 426], the IC50 came out at 3900 nM.

As for `Cc1cccnc1C(C)(C)NC(=O)c1cc2cccc(C)c2[nH]1` [compound 595], the IC50 is above 25000 nM.

Regarding `CC(=O)N1CCN([C@H]2CCC[C@@H](NC(=O)c3cc4cccc(C)c4[nH]3)C2)CC1` [compound 856], the IC50 came to 300 nM.

Turning to `Cc1ccc(F)c2cc(C(=O)Nc3cccc(N4CCN(C)CC4)n3)[nH]c12` [compound 344], the IC50 was 1800 nM.

Consider `Cc1ccc(F)c2cc(C(=O)NC3CCCC(N4CCN5C(=O)CN(C)C(=O)C5C4)C3)[nH]c12` (stereo not shown) [compound 1046], for which the IC50 is above 2000 nM.

Take `Cc1ccc(F)c2cc(C(=O)Nc3ccc4ncc(CN(C)C)n4c3)[nH]c12` [compound 536]: the IC50 was above 25000 nM.

Consider `Cc1ccc(F)c2cc(C(=O)Nc3cccc(-c4cc5cnccn5c4)c3)[nH]c12` [compound 215], for which the IC50 worked out at 500 nM.

For the compound `Cc1ccc(F)c2cc(C(=O)Nc3cccc(N4CC5CC(C4)O5)c3)[nH]c12` [compound 218], the IC50 stood at 500 nM.

Another test addresses T1, SETD2(1434-1711) (Homo sapiens, UniProt Q9BYW2).
T1 construct: SETD2 (1434-1711) Assay; catalogue N/A
T1 sequence (Q9BYW2 1434-1711): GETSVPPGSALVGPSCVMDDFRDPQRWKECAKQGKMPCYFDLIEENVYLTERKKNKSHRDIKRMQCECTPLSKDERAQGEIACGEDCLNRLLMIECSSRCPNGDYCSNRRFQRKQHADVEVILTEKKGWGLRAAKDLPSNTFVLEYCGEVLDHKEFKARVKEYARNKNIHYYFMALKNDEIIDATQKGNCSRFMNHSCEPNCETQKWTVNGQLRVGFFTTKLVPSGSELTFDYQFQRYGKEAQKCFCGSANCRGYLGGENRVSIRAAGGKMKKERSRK
In words: SETD2 (1434-1711) assay. Format: biochemical. Conditions: read-out: SETD2 (1434-1711).
On to `Cc1ccc(F)c2cc(C(=O)Nc3cccc(N4CC[C@H](N(C)C)C4)c3)[nH]c12` [compound 102], for which the IC50 came out at 20 nM.

With `Cc1cc(-c2cccnc2)cnc1C(NC(=O)c1cc2cccc(C)c2[nH]1)C1CC1` (stereo not shown) [compound 406], the IC50 amounted to 300 nM.

Turning to `C=Cc1ccc(C)c2[nH]c(C(=O)NC(CCC(=O)N3CCOCC3)c3ncccc3C)cc12` (stereo not shown) [compound 431], the IC50 is 2100 nM.

In the case of `Cc1cccc2cc(C(=O)NCCc3ccccc3N3CCC(CCN(C)C)CC3)[nH]c12` [compound 549], the IC50 came out at 5800 nM.

As to `Cc1ccc(F)c2cc(C(=O)Nc3cccc(N4CCN(C)CC4c4ccccc4)c3)[nH]c12` (stereo not shown) [compound 539], the IC50 turned out to be 1600 nM.

As to `Cc1ccc(F)c2cc(C(=O)NC3CCCC(c4cncnc4)C3)[nH]c12` (stereo not shown) [compound 379], the IC50 is above 10000 nM.

For `CCc1cc(NC(=O)c2cc3c(F)ccc(C)c3[nH]2)cc(N2CCC(N(C)C)CC2)c1` [compound 398], the IC50 was 70 nM.

As to `Cc1ccc(F)c2cc(C(=O)NC3CCCC(N4CCN5C(=O)CN(C)C(=O)C5C4)C3)[nH]c12` (stereo not shown) [compound 1103], the IC50 was 100 nM.

With `Cc1ccc(F)c2cc(C(=O)NC3CCCC(N4CCn5c(cn(C)c5=O)C4)C3)[nH]c12` (stereo not shown) [compound 1179], the IC50 came out at 500 nM.

On to `CCNC(=O)N1CCN(C2CCCC(NC(=O)c3cc4c(F)ccc(C)c4[nH]3)C2)CC1` (stereo not shown) [compound 949], for which the IC50 amounted to 700 nM.

For the compound `Cc1ccc(F)c2cc(C(=O)NC3CCCC(N4CCN(C(=O)OC(C)C)CC4)C3)[nH]c12` (stereo not shown) [compound 998], the IC50 came to 1500 nM.

As for `Cc1ccc(F)c2cc(C(=O)Nc3cc(F)cc(N4CCN(C(=O)CN(C)C)CC4)c3)[nH]c12` [compound 62], the IC50 was determined as 9 nM.

`Cc1ccc(F)c2cc(C(=O)Nc3cccc(N4CCNC(=O)CC4)c3)[nH]c12` [compound 200]: the IC50 is 50 nM.

For `CC(=O)N1C(C)CN(C2CCCC(NC(=O)c3cc4c(F)ccc(C)c4[nH]3)C2)CC1C` (stereo not shown) [compound 1162], the IC50 was 70 nM.

As to `CNC(=O)CN1CCCC(NC(=O)c2cc3c(F)ccc(C)c3[nH]2)C1` (stereo not shown) [compound 384], the IC50 is above 10000 nM.

For `CCNC(=O)N1CCN(C2CCCC(NC(=O)c3cc4c(F)ccc(C)c4[nH]3)C2)CC1` (stereo not shown) [compound 948], the IC50 is 10 nM.

Consider `Cc1ccc(F)c2cc(C(=O)NC3CCCC(N4CCC(N(C)C(=O)C5COC5)C4)C3)[nH]c12` (stereo not shown) [compound 946], for which the IC50 came to 20 nM.

For the compound `Cc1cccc2cc(C(=O)Nc3cnc4nccn4c3)[nH]c12` [compound 484], the IC50 is 7600 nM.

On to `Cc1cc(-c2ccc(N)nc2)cnc1C(NC(=O)c1cc2cccc(C)c2[nH]1)C1CC1` (stereo not shown) [compound 426], for which the IC50 was found to be 400 nM.

On to `Cc1cccnc1C(C)(C)NC(=O)c1cc2cccc(C)c2[nH]1` [compound 595], for which the IC50 was above 50000 nM.

`CC(=O)N1CCN([C@H]2CCC[C@@H](NC(=O)c3cc4cccc(C)c4[nH]3)C2)CC1` [compound 856]: the IC50 came out at 200 nM.

Consider `Cc1ccc(F)c2cc(C(=O)Nc3cccc(N4CCN(C)CC4)n3)[nH]c12` [compound 344], for which the IC50 is 200 nM.

In the case of `Cc1ccc(F)c2cc(C(=O)NC3CCCC(N4CCN5C(=O)CN(C)C(=O)C5C4)C3)[nH]c12` (stereo not shown) [compound 1046], the IC50 is 2800 nM.

As for `Cc1ccc(F)c2cc(C(=O)Nc3ccc4ncc(CN(C)C)n4c3)[nH]c12` [compound 536], the IC50 was determined as 800 nM.

In the case of `Cc1ccc(F)c2cc(C(=O)Nc3cccc(-c4cc5cnccn5c4)c3)[nH]c12` [compound 215], the IC50 came out at 70 nM.

Consider `Cc1ccc(F)c2cc(C(=O)Nc3cccc(N4CC5CC(C4)O5)c3)[nH]c12` [compound 218], for which the IC50 turned out to be 70 nM.
